Earlier results on nine compounds are cited in US20060024360A1, “Stable injectable composition of alpha tocopheryl succinate, analogues and salts thereof” (SD Pharmaceuticals, Inc., priority 2004, published 2006).

Molecules are shown by their SMILES. Where a name gives a salt, the structure may show the parent alone.

Data set [1] relates to mouse cancer line (C1271).
In data set [2] the test system is melanoma. The conditions noted are these: mice.
The subject of data set [3] is color cancer liver metastases. The conditions noted are these: in vivo.
The test system of data set [4] is malignant mesothelioma. The note with it: immunocompromised mice.
Data set [5] concerns human gastric carcinoma cell. The note with it: human cells.

As for `Cc1c(C)c2c(c(C)c1OC(=O)CC(=O)O)CCC(C)(CCCC(C)CCCC(C)CCCC(C)C)O2` (stereo not drawn) [alpha-tocopheryl malonate, Alpha-tocopheryl malonate], the induction of apoptosis entry in data set [1] is given as “induce apoptosis”.
Take `Cc1c(C)c2c(c(C)c1OC(=O)CCCCCC(=O)O)CCC(C)(CCCC(C)CCCC(C)CCCC(C)C)O2` (stereo not drawn) [alpha-tocopheryl pimelate, Alpha-tocopheryl pimelate]: in data set [1], the induction of apoptosis entry was “not apoptogenic”.
As to `Cc1c(C)c2c(c(C)c1O)CC[C@@](C)(CCC[C@H](C)CCC[C@H](C)CCCC(C)C)O2` (racemic) [alpha-tocopherol, (±)-(2RS,4′RS,8′RS)-2,5,7,8-tetramethyl-2-(4′,8′, 12′-trimethyltridecyl)-6-chromanol], in data set [1], the induction of apoptosis result is on record as “not apoptogenic”.
Consider `Cc1c(O)cc2c(c1C)O[C@](C)(CCC[C@H](C)CCC[C@H](C)CCCC(C)C)CC2` [gamma-tocopherol, Gamma-tocopherol], for which, in data set [1], the induction of apoptosis entry is listed as “not apoptogenic”.
On to `Cc1c(C)c2c(c(C)c1OC(=O)C(=O)O)CCC(C)(CCCC(C)CCCC(C)CCCC(C)C)O2` (stereo not drawn) [alpha-tocopheryl oxalate, Alpha-tocopheryl oxalate], for which, in data set [1], the induction of apoptosis entry is listed as “induce apoptosis” and the “relative potency among alpha-tocopheryl derivatives tested” value was “most potent”.
On to `CCOC(=O)CCC(=O)Oc1c(C)c(C)c2c(c1C)CCC(C)(CCCC(C)CCCC(C)CCCC(C)C)O2` (stereo not drawn) [alpha-tocopheryl succinate ethyl ester], for which the induction of apoptosis entry in data set [1] was “not apoptogenic”.
Consider `Cc1c(C)c2c(c(C)c1OC(=O)c1cccnc1)CC[C@@](C)(CCC[C@H](C)CCC[C@H](C)CCCC(C)C)O2` [alpha-tocopheryl nicotinate], for which the induction of apoptosis result in data set [1] is “not apoptogenic”.
Consider `CC(=O)Oc1c(C)c(C)c2c(c1C)CCC(C)(CCC[C@H](C)CCC[C@H](C)CCCC(C)C)O2` (stereo partly drawn) [alpha-tocopheryl acetate], for which the induction of apoptosis result in data set [1] was “not apoptogenic”.
For the compound `Cc1c(C)c2c(c(C)c1OC(=O)CCC(=O)O)CC[C@@](C)(CCC[C@H](C)CCC[C@H](C)CCCC(C)C)O2` [alpha-tocopheryl succinate], the induction of apoptosis entry in data set [1] is recorded as “induce apoptosis”. In data set [2], the melanoma growth result is given as “inhibited melanoma growth”. Moreover, in data set [3], the liver metastases result is reported as “inhibiting color cancer liver metastases”. Moreover, the malignant mesothelioma entry in data set [4] is “suppressed malignant mesothelioma”. In data set [5], the “gastric carcinoma cell growth” value is given as “inhibits human gastric carcinoma cell growth”.
